Among the test systems are SW-620 colon; SK-MEL-28 melanoma; MDA-N; SN12C renal; MDA-MB-435; M14 melanoma; UACC-257 melanoma; TK-10 renal; HS 578T breast.
Test in all cases: NCI anticancer screen, dose series, 48 h

The record followed here is PubChem BioAssay (NCI).

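Grown in 96-well plates, cells were treated for 48 hours with each compound at five concentrations. Insufficient inhibition: endpoint recorded as highest concentration tested. TGI marks complete inhibition of growth.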

Consider `COC1(OC)/C(=C(\N)C=O)NC(C)(C)N1O`, for which the TGI in the test on SW-620 colon, in the test with SK-MEL-28 melanoma, in the test with MDA-N, in the test on SN12C renal, with MDA-MB-435 and with M14 melanoma was above 100 µM each time. Further, the TGI in the test with UACC-257 melanoma was above 100 µM.

As to `CC(=O)Nc1ncc2c(n1)-c1ccccc1OC2`, the TGI with SW-620 colon was above 100 µM; in the test on TK-10 renal it was above 100 µM; in the test with MDA-N, above 100 µM; in the test with SN12C renal it was above 100 µM; in the test with MDA-MB-435, above 100 µM; in the test with HS 578T breast, 94.4 µM. Moreover, the TGI with M14 melanoma and with UACC-257 melanoma was above 100 µM each time.

Regarding `COC(=O)CCc1ccc2c(c1)CC1(C2)Cc2ccc(CCC(=O)OC)cc2C1`, the TGI with TK-10 renal, with MDA-N, with SN12C renal, with MDA-MB-435, in the test on HS 578T breast and with M14 melanoma was above 100 µM throughout. The TGI in the test on UACC-257 melanoma was above 100 µM.

For `CCOc1ccc(NC(=S)/N=C/C(C(=O)Nc2ccccc2C)=C(\C)O)cc1`, the TGI in the test on SW-620 colon, in the test on TK-10 renal, in the test on MDA-N, in the test with SN12C renal, in the test on MDA-MB-435 and in the test on HS 578T breast was above 100 µM in each case. Further, the TGI in the test on M14 melanoma and in the test on UACC-257 melanoma was above 100 µM throughout.

As to `O=C(Nc1ccccc1)N1N=C(c2ccccc2)C1c1ccccc1` (centres undefined), the TGI was above 100 µM in the test with SW-620 colon; above 100 µM in the test with SK-MEL-28 melanoma; above 100 µM with TK-10 renal; 70.7 µM in the test with MDA-N; above 100 µM with SN12C renal; 60.7 µM in the test with HS 578T breast. Also, the TGI in the test on M14 melanoma is 60.4 µM; with UACC-257 melanoma, above 100 µM.

Turning to `COc1cc([C@@H]2c3cc4c(cc3[C@@H](Nc3ccc(Cl)cc3C(=O)c3ccccc3Cl)[C@H]3COC(=O)[C@H]23)OCO4)cc(OC)c1OC`, the TGI in the test with SW-620 colon is above 46.1 µM; with SK-MEL-28 melanoma it was 34 µM; with TK-10 renal it was above 100 µM; with SN12C renal, above 100 µM; in the test with MDA-MB-435, 0.397 µM; in the test with M14 melanoma, above 100 µM. Also, in the test with UACC-257 melanoma, the TGI was above 100 µM.

For the compound `CN(C)CCNC(=O)c1cccc2c(NC(CS)C(=O)O)c3ccccc3nc12` (centres undefined), the TGI in the test on SW-620 colon is above 100 µM; in the test with SK-MEL-28 melanoma, 35.7 µM; in the test with TK-10 renal, above 100 µM; in the test on MDA-N, 20 µM; in the test with SN12C renal it was 24 µM; in the test with MDA-MB-435, 21 µM. For the same compound, the TGI with M14 melanoma is 19.5 µM; in the test with UACC-257 melanoma, above 100 µM.

For `CC(=O)Nc1ccc(C(=O)N2N=C(C)/C(=C/c3cccc(O)c3)C2=O)cc1`, the TGI in the test with SW-620 colon, with SK-MEL-28 melanoma, in the test on TK-10 renal, with SN12C renal, in the test on M14 melanoma and with UACC-257 melanoma was above 100 µM in each case.

For `CN1C(=O)[C@@]2(C=CC3(CC2)OCCO3)c2ccccc21`, the TGI in the test with SW-620 colon, in the test on SK-MEL-28 melanoma, with TK-10 renal, in the test on MDA-N, in the test on SN12C renal and in the test with MDA-MB-435 was above 50 µM throughout. Moreover, the TGI in the test on M14 melanoma and in the test on UACC-257 melanoma was above 50 µM throughout.

For `CCCCCCCC(CC(=O)O)OC(=O)CC(CCCCCCC)OC1OC(C)C(O)C(O)C1OC1OC(C)C(O)C(O)C1O` (centres undefined), the TGI in the test on SW-620 colon, in the test on SK-MEL-28 melanoma, with MDA-N, with SN12C renal, with MDA-MB-435 and in the test with HS 578T breast was above 100 µM in each case. The TGI with M14 melanoma and in the test with UACC-257 melanoma was above 100 µM each time.

`Cc1cnc2[nH]c(-c3ccccc3)cc(=O)c2c1`: the TGI in the test with SW-620 colon is above 100 µM; in the test with SK-MEL-28 melanoma, above 100 µM; in the test with TK-10 renal, 99.5 µM; in the test with MDA-N, above 100 µM; in the test on SN12C renal, above 14 µM; in the test with HS 578T breast, 0.0595 µM. The TGI in the test with M14 melanoma was above 18 µM.

Turning to `C=CC1(CCC(Br)C(C)(C)Cl)CO1` (centres undefined), the TGI in the test with SW-620 colon, in the test with SK-MEL-28 melanoma, in the test with TK-10 renal, with MDA-N, with SN12C renal and in the test with MDA-MB-435 was above 10 µM throughout. Besides, the TGI with M14 melanoma is above 10 µM.

On to `C/C(=N\O)c1ccc(Nc2c3ccccc3nc3occc23)cc1`, for which the TGI in the test on SW-620 colon is above 50 µM; in the test on SK-MEL-28 melanoma it was above 18.5 µM; in the test on TK-10 renal, 25.4 µM; in the test with MDA-N, above 50 µM; with SN12C renal, above 50 µM; with MDA-MB-435 it was 0.0781 µM. In addition, the TGI in the test with M14 melanoma was 3.5 µM; with UACC-257 melanoma it was above 44.6 µM.

Turning to `C=C1c2nc3ccccc3n2C=C(c2ccccc2)N1c1ccc(OC)cc1`, the TGI in the test with SW-620 colon was above 100 µM; in the test on TK-10 renal, 26.1 µM; in the test with MDA-N, above 100 µM; in the test on SN12C renal, above 100 µM; with MDA-MB-435, above 100 µM; in the test with M14 melanoma, 52.6 µM. Also, the TGI with UACC-257 melanoma was above 100 µM.
